# Measurements: PMC11094777, “Mutational and structural studies of (βα)8‐barrel fold methylene‐tetrahydropterin reductases utilizing a common catalytic mechanism” (Protein Science : A Publication of the Protein Society, 2024)
# Like-named read-outs stand apart in the source and are kept apart here.
# What was measured:
# Experiment in all cases: F420H2 oxidation followed at […] nm, anaerobic
# Type in all cases: biochemical
# [1] = target: T1, jMer (F420-dependent methylene-H4MPT reductase from Methanocaldococcus jannaschii) (Methanocaldococcus jannaschii, UniProt Q58929); conditions: 20 μM F420H2, 100 mM Tris/HCl pH 8.0, 55°C; read-out: App. K m
# T1 construct: gene mer; pT7-7_jMer in E. coli ArcticExpress (DE3); no tag mentioned; heat step and column purification; homodimer ~80 kDa
# T1 sequence (Q58929 whole entry): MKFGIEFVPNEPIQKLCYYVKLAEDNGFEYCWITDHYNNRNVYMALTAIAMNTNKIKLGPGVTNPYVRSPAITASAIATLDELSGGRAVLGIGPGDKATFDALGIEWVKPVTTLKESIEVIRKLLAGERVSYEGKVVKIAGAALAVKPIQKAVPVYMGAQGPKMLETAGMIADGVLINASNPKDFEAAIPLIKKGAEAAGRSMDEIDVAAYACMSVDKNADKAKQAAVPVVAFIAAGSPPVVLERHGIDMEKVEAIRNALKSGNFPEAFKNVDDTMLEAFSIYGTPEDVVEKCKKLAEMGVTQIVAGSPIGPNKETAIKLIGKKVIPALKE
# [2] = target: T2, jMer (F420-dependent methylene-H4MPT reductase from Methanocaldococcus jannaschii) (Methanocaldococcus jannaschii, UniProt Q58929, D96N, form not given); conditions: 20 μM F420H2, 100 mM Tris/HCl pH 8.0, 55°C; read-out: App. K m
# T2 construct: gene mer; pT7-7_jMer in E. coli ArcticExpress (DE3); no tag mentioned; heat step and column purification; homodimer ~80 kDa
# T2 sequence (Q58929 whole entry D96N, form open): as the sequence (Q58929 whole entry) above, with D96N counted along it
# [3] = target: T1, jMer (F420-dependent methylene-H4MPT reductase from Methanocaldococcus jannaschii); conditions: 20 μM F420H2, 100 mM Tris/HCl pH 8.0, 55°C; methylene-H4MPT made in situ from H4MPT and 15 mM formaldehyde; read-out: App. K m
# [4] = target: T3, jMer (F420-dependent methylene-H4MPT reductase from Methanocaldococcus jannaschii) (Methanocaldococcus jannaschii, UniProt Q58929, E6Q, form not given); conditions: 20 μM F420H2, 100 mM Tris/HCl pH 8.0, 55°C; read-out: App. K m
# T3 construct: gene mer; pT7-7_jMer in E. coli ArcticExpress (DE3); no tag mentioned; heat step and column purification; homodimer ~80 kDa
# T3 sequence (Q58929 whole entry E6Q, form open): as the sequence (Q58929 whole entry) above, with E6Q counted along it
compound,measurement,setting,value
C[C@@H]1Nc2nc(N)[nH]c(=O)c2N2CN(c3ccc(C[C@H](O)[C@H](O)[C@H](O)CO[C@H]4O[C@H](COP(=O)(O)O[C@@H](CCC(=O)O)C(=O)O)[C@@H](O)[C@H]4O)cc3)[C@H](C)[C@@H]12 [Methylene‐H4MPT],Km,[1],20 ± 5 µM
same,Km,[2],140 ± 30 µM
same,Km,[3],58 ± 29.7 µM
same,Km,[4],34 ± 10 µM
